According to US20170226133A1, “Gold (I)-Phosphine Compounds as Anti-Bacterial Agents” (Auspherix Limited, priority 2014, published 2017):

What was measured:
[1] = test system: chinese hamster ovary cells (CHO); assay: CHO toxicity assay (CCK-8 cell viability); assay type: cell-based; settings: 50% growth inhibition, 24 hours
Description: Cell counting kit-8 (Sigma, CCK-8) assays were performed to assess the effect of compounds on cell viability. The assay is based on the reduction of a water-soluble tetrazolium salt (WST-8) by cellular dehydrogenases to a formazan dye which can be detected spectroscopically. 96-well plates were seeded with chinese hamster ovary cells (CHO) cells at 7×10^3 cells per well in Dulbecco's modified Eagle's medium nutrient mixture F-12 Ham (containing 15 mM HEPES, NaHCO3, pyridoxine and L-glutamine) supplemented with 10% fetal bovine serum (FBS). The following day serial dilutions of compounds (dissolved and diluted in DMSO) were added to the cells in duplicates. Control included an ‘untreated’ control where cells were grown in the presence of 1% DMSO and a medium only control (plus 1% DMSO). After 24 hours CCK-8 reagent (10 μl) was added to each well and cell viability was assessed by measuring the absorbance at a wavelength of 450 nm after 2.5-3 hours. Only living cells can reduce the tetrazolium salts into coloured formazan products. Results were expressed as 50% growth inhibition (TD50) values compared to ‘untreated’ control.
The therapeutic index was calculated as the ratio of the dose that produces growth inhibition in 50% of CHO cells divided by the dose where 50% of S. aureus growth is inhibited.

[2] = test system: human hepatocyte cell line (HepG2); assay: HepG2 cell inhibition assay (CCK-8 cell viability); assay type: cell-based; settings: 50% growth inhibition, 24 hours
Description: Cell counting kit-8 (Sigma, CCK-8) assays were performed to assess the effect of compounds on cell viability. The assay is based on the reduction of a water-soluble tetrazolium salt (WST-8) by cellular dehydrogenases to a formazan dye which can be detected spectroscopically. 96-well plates were seeded with the human hepatocyte cell line (HepG2) at approximately 8×10^3 cells per well in Minimum Essential Medium Eagle (EMEM) with Earle's salts and sodium bicarbonate supplemented with 10% heat-inactivated foetal bovine serum 2 mM glutamine and 1% non-essential amino acids (NEAA). The following day serial dilutions of compounds (dissolved and diluted in DMSO) were added to the cells in duplicates. Control included an ‘untreated’ control where cells were grown in the presence of 1% DMSO and a medium only control (plus 1% DMSO). After 24 hours CCK-8 reagent (10 μl) was added to each well and cell viability was assessed by measuring the absorbance at a wavelength of 450 nm after 2-3 h hours. Only living cells can reduce the tetrazolium salts into coloured formazan products. Results were expressed as 50% growth inhibition (TD50) values compared to ‘untreated’ control. The therapeutic index was calculated as the ratio of the dose that produces growth inhibition in 50% of HepG2 cells divided by the dose where 50% of S. aureus or E. coli growth is inhibited.

[3] = test system: S. aureus NCTC 8325 biofilm; assay: Preformed S. aureus biofilm assay (crystal violet); assay type: cell-based, Staphylococcus aureus; settings: S. aureus NCTC 8325, 24 hours preformed biofilm, 24 hours exposure
Description: The effect of a test compound on the formation of a S. aureus biofilm may be assessed using a biofilm prevention assay as described by Merritt et al. Current Protocols in Microbiology, 2011, 1B.1.1-1B1.18 with slight modifications. Briefly, S. aureus NCTC 8325, MRSA (RPAH18) and MRSA (MW2) are grown overnight in Tryptic soy broth (TSB) and diluted to between 1/50 and 1/100 before 150 μL is added to the wells of a flat bottomed 96-well plate. Three microliters of auranofin at the appropriate dilution in DMSO are added to the wells in duplicate. Controls included a serial dilution of lincomycin in ethanol (to assess plate to plate variation), a positive control with bacteria alone in TSB with 2% DMSO and a negative (no bacteria) control with 150 μL TSB containing 2% DMSO. Plates are sealed with AeraSeal™ and incubated at 37° C. for 24 hours. The plates are then washed three times with PBS, dried at 60° C. for 1 hour and stained with crystal violet for 1 hour. The plates are again washed three times with water, dried and scanned prior to the addition of 33% acetic acid to re-solubilize the crystal violet stain bound to the adherent cells. Absorbance is then measured at 595 nm and expressed as a percentage of the bacteria only control.
The effect of a test compound on preformed S. aureus biofilms can also be assessed. Briefly S. aureus NCTC 8325 is plated in 96-well plates as described in above and incubated 37° C. for 24 hours. Biofilms are then washed 3 times with TSB and 150 μL of fresh TSB and 3 μL of auranofin at the appropriate dilution in DMSO was added to the wells in duplicate. Plates are again sealed with AeraSeal™ and reincubated 37° C. for 24 hours. Biofilm is then detected as described above.

[4] = test system: G. mellonella larvae; assay: Galleria mellonella model, toxicity of compound alone; assay type: in vivo; settings: uninfected larvae
Description: (§1) G. mellonella larvae at 5th or 6th instar stage were purchased from a commercial supplier and used within 3 days. Prior to infection larvae were kept at room temperature. Larvae were infected with bacteria (various Gram positive and negative bacteria, including S. aureus, K. pneumoniae, E. coli and P. aeruginosa) using a sterile Hamilton syringe. Bacteria cultures were grown overnight, washed ×3 in PBS and resuspended in PBS. Larvae were wiped with 70% ethanol and 10 μl of bacteria solution (to cause 80% death within 3-4 days) was injected into the bottom right proleg of the larvae. Larvae injected with 10 μl of PBS were used as negative controls. Larvae were then placed in petri dishes (1 dish per condition) containing filter paper at the bottom of the dish at 37° C. After various time points post infection (1-6 h), larvae were taken from the incubator wiped again with 70% ethanol and injected with 10 μl of various concentrations of compound, dissolved in either 5% dimethyl sulfoxide, 5% ethanol or 5% 1-methyl-2-pyrrolidinone into a proleg on the left hand-side. Control larvae received 10 μl of 5% solvent. Ten larvae were injected for each condition. To assess the toxicity of the compound, larvae were injected with various concentrations of compound alone. Larvae were returned to a 37° C. incubator and checked daily. Larvae were considered dead when no movement occurred when touched with a blunt pair of forceps. […] Numbers of dead larvae were recorded each day.
Survival Proportions Following Dosing with 10 μl of Compound 8 Solutions of Varying Strengths

[5] = test system: S. aureus infection of G. mellonella larvae; assay: Galleria mellonella model, efficacy after S. aureus infection; assay type: in vivo; settings: S. aureus infected larvae
Description: as §1, with “daily.” for “daily. Larvae were considered dead when no movement occurred when touched with a blunt pair of forceps.”, “day. […]” for “day.”

For `C[P](C)(C)=[Au][S]c1nc2ccccc2[nH]1` [Compound 1], the “CHO cell TD50” value [1] was 3.2 µg/mL and the “HepG2 cell TD50” value [2] was 4 µg/mL.

For `COC(=O)[C@H](C[S][Au]=[P](C)(C)C)NC(C)=O` [Compound 2], the “effect on preformed S. aureus biofilm” value [3] was “disrupted the biofilm”, the “CHO cell TD50” value [1] was 6.4 µg/mL and the “HepG2 cell TD50” value [2] was 11 µg/mL.

In the case of `C[P](C)(C)=[Au][S]c1nc2ncccc2o1` [Compound 3], the “effect on preformed S. aureus biofilm” value [3] is reported as “disrupted the biofilm”, the “CHO cell TD50” value [1] is reported as 5.0 µg/mL and the “HepG2 cell TD50” value [2] is reported as 9 µg/mL.

For `CC(=O)N[C@@H](C[S][Au]=[P](C)(C)C)C(N)=O` [Compound 4], the “effect on preformed S. aureus biofilm” value [3] was “disrupted the biofilm” and the “HepG2 cell TD50” value [2] was 22 µg/mL.

With `C[P](C)(C)=[Au][S]c1nc2cccnc2[nH]1` [Compound 7] the “effect on preformed S. aureus biofilm” value [3] was “disrupted the biofilm” and the “HepG2 cell TD50” value [2] was 12.5 µg/mL.

For `CCOC(=O)[C@H](C[S][Au]=[P](C)(C)C)NC(C)=O` [Compound 8], the “effect on preformed S. aureus biofilm” value [3] was “disrupted the biofilm”, the Survival proportions ([4]; 3.75 mg/kg, Day 1) was 100 and the Survival proportions ([4]; 3.75 mg/kg, Day 2) was 100. For the same compound, the Survival proportions ([4]; 3.75 mg/kg, Day 3) was 100, the Survival proportions ([4]; 3.75 mg/kg, Day 4) was 100 and the Survival proportions ([4]; 7.5 mg/kg, Day 1) was 100. For the same compound, the Survival proportions ([4]; 7.5 mg/kg, Day 2) was 100, the Survival proportions ([4]; 7.5 mg/kg, Day 3) was 100 and the Survival proportions ([4]; 7.5 mg/kg, Day 4) was 100. The Survival proportions ([4]; 15 mg/kg, Day 1) was 100, the Survival proportions ([4]; 15 mg/kg, Day 2) was 100 and the Survival proportions ([4]; 15 mg/kg, Day 3) was 100. It also gave a Survival proportions ([4]; 15 mg/kg, Day 4) of 100, a Survival proportions ([4]; 30 mg/kg, Day 1) of 100 and a Survival proportions ([4]; 30 mg/kg, Day 2) of 90. The Survival proportions ([4]; 30 mg/kg, Day 3) was 90, the Survival proportions ([4]; 30 mg/kg, Day 4) was 90 and the Survival proportions ([4]; 60 mg/kg, Day 1) was 100. It also gave a Survival proportions ([4]; 60 mg/kg, Day 2) of 80, a Survival proportions ([4]; 60 mg/kg, Day 3) of 60 and a Survival proportions ([4]; 60 mg/kg, Day 4) of 50. For the same compound, the mean survival rates ([5]; 2 mg/kg (p=0.02)) was “significantly increased”, the mean survival rates ([5]; 4 mg/kg (p=0.04)) was “significantly increased” and the “HepG2 cell TD50” value [2] was 9.5 µg/mL.

For `C[P](C)(C)=[Au][S]c1ccccc1` [Compound 10], the “effect on preformed S. aureus biofilm” value [3] was “disrupted the biofilm” and the “HepG2 cell TD50” value [2] was 2 µg/mL.

`C[P](C)(C)=[Au][S]c1ccccn1` [Compound 11] was tested, and the “effect on preformed S. aureus biofilm” value [3] was “disrupted the biofilm” and the “HepG2 cell TD50” value [2] was 4.5 µg/mL.

With `C[P](C)(C)=[Au][S]c1ncccn1` [Compound 12] the “effect on preformed S. aureus biofilm” value [3] was “disrupted the biofilm” and the “HepG2 cell TD50” value [2] was 4.5 µg/mL.

In the case of `CN1CCC([S][Au]=[P](C)(C)C)CC1` [Compound 13], the “HepG2 cell TD50” value [2] is reported as 15 µg/mL.

`C[P](C)(C)=[Au][S]c1nc2ncccc2s1` [Compound 14] was tested, and the “effect on preformed S. aureus biofilm” value [3] was “disrupted the biofilm” and the “HepG2 cell TD50” value [2] was 7 µg/mL.

`C[P](C)(C)=[Au][S][C@H]1CC[C@H](O)CC1` [Compound 15] was tested, and the “effect on preformed S. aureus biofilm” value [3] was “disrupted the biofilm” and the “HepG2 cell TD50” value [2] was 4.5 µg/mL.

For `C[P](C)(C)=[Au][S]C1CCOCC1` [Compound 16], the “HepG2 cell TD50” value [2] was 4.5 µg/mL.

For `CCOC(=O)[C@H](C[Se][Au]=[P](C)(C)C)NC(C)=O` [Compound 18], the “HepG2 cell TD50” value [2] was greater than 50 µg/mL.

With `C[P](C)(C)=[Au][S]c1cccnc1` [Compound 19] the “HepG2 cell TD50” value [2] was 3 µg/mL.
